Source: ChEMBL document CHEMBL3885861, “Open TG-GATES”

Species: Rattus norvegicus
Experiment: Open TG-GATES - Regimen: Daily Repeat
Assay type: toxicity, organism-based, Sprague-Dawley
Set-up: regimen Daily Repeat, gender Male, age 6 weeks
Conditions: in vivo, po, route gavage; for APTT / Bas / Eos / Fbg / Ht / Lym / MCH / MCHC / MCV / Mono / Neu / Plat / RBC / Ret / WBC: tissue Blood; for ALP / ALT / AST / BUN / CRE / DBIL / GLC / IP / K / LDH / Na / PL / RALB / TBIL / TC / TG / TP / gamma-GTP: tissue Plasma
[1] = 0 mg/kg, 72 h, dose level Control, time 3 day
[2] = 0 mg/kg, […], dose level Control, time 7 day
[3] = 0 mg/kg, […], dose level Control, time 14 day
[4] = 0 mg/kg, […], dose level Control, time 28 day
[5] = 45 mg/kg, 72 h, dose level Low, time 3 day
[6] = 45 mg/kg, […], dose level Low, time 7 day
[7] = 45 mg/kg, […], dose level Low, time 14 day
[8] = 45 mg/kg, […], dose level Low, time 28 day

## CCCC(CCC)C(=O)O [VALPROIC ACID]
[1]
  TERMINAL_BW: 222 g
  APTT: 18.8 s
  Bas: 0%
  Eos: 1%
  Fbg: 222.8 mg/dL
  Ht: 37.7%
  Lym: 82.2%
  MCH: 21.3 pg
  MCHC: 34.2%
  MCV: 62.3 fL
  Mono: 3.4%
  Neu: 12.8%
  Plat: 135 x10_4/uL
  RBC: 604.8 x10_4/ul
  Ret: 6.6%
  WBC: 101 x10_2/uL
  ALP: 1099.6 IU/L
  ALT: 35.6 IU/L
  AST: 65.4 IU/L
  BUN: 16.2 mg/dL
  CRE: 0.4 mg/dL
  DBIL: 0.062 mg/dL
  GLC: 216.2 mg/dL
  IP: 8 mg/dL
  K: 4.1 meq/L
  LDH: 206.6 IU/L
  Na: 140.8 meq/L
  PL: 145.2 mg/dL
  RALB: 3.3 g/dL
  TBIL: 0.1 mg/dL
  TC: 71.6 mg/dL
  TG: 84.6 mg/dL
  TP: 5.4 g/dL
  gamma-GTP: 0.8 IU/L
[2]
  TERMINAL_BW: 256.3 g
  APTT: 19.2 s
  Bas: 0%
  Eos: 1%
  Fbg: 210.8 mg/dL
  Ht: 40.7%
  Lym: 83.8%
  MCH: 21.2 pg
  MCHC: 34.3%
  MCV: 61.9 fL
  Mono: 2.6%
  Neu: 12.4%
  Plat: 132.8 x10_4/uL
  RBC: 658.4 x10_4/ul
  Ret: 5.8%
  WBC: 96.1 x10_2/uL
  ALP: 909.6 IU/L
  ALT: 33.6 IU/L
  AST: 66 IU/L
  BUN: 17.2 mg/dL
  CRE: 0.4 mg/dL
  DBIL: 0.08 mg/dL
  GLC: 223.2 mg/dL
  IP: 8 mg/dL
  K: 3.8 meq/L
  LDH: 199.6 IU/L
  Na: 141 meq/L
  PL: 146.2 mg/dL
  RALB: 3.4 g/dL
  TBIL: 0.1 mg/dL
  TC: 68.8 mg/dL
  TG: 106.4 mg/dL
  TP: 5.5 g/dL
  gamma-GTP: 1.2 IU/L
[3]
  TERMINAL_BW: 316.1 g
  APTT: 18.3 s
  Bas: 0%
  Eos: 1%
  Fbg: 228.2 mg/dL
  Ht: 40.9%
  Lym: 78.6%
  MCH: 20.7 pg
  MCHC: 35.2%
  MCV: 58.9 fL
  Mono: 2.4%
  Neu: 17.6%
  Plat: 140.4 x10_4/uL
  RBC: 695 x10_4/ul
  Ret: 4.7%
  WBC: 114.6 x10_2/uL
  ALP: 946.4 IU/L
  ALT: 34.8 IU/L
  AST: 64.4 IU/L
  BUN: 19 mg/dL
  CRE: 0.4 mg/dL
  DBIL: 0.098 mg/dL
  GLC: 231.4 mg/dL
  IP: 7.1 mg/dL
  K: 3.6 meq/L
  LDH: 198.8 IU/L
  Na: 140.6 meq/L
  PL: 166 mg/dL
  RALB: 3.5 g/dL
  TBIL: 0.1 mg/dL
  TC: 77 mg/dL
  TG: 137.2 mg/dL
  TP: 5.9 g/dL
  gamma-GTP: 1.2 IU/L
[4]
  TERMINAL_BW: 396.1 g
  APTT: 19.4 s
  Bas: 0%
  Eos: 1%
  Fbg: 227.8 mg/dL
  Ht: 42.7%
  Lym: 83%
  MCH: 19.2 pg
  MCHC: 34.9%
  MCV: 55.1 fL
  Mono: 2.2%
  Neu: 12.8%
  Plat: 108.4 x10_4/uL
  RBC: 775.4 x10_4/ul
  Ret: 2.6%
  WBC: 129.7 x10_2/uL
  ALP: 657.8 IU/L
  ALT: 34.8 IU/L
  AST: 64.4 IU/L
  BUN: 17.6 mg/dL
  CRE: 0.5 mg/dL
  DBIL: 0.088 mg/dL
  GLC: 208.8 mg/dL
  IP: 6.9 mg/dL
  K: 3.9 meq/L
  LDH: 175.2 IU/L
  Na: 140.2 meq/L
  PL: 150.6 mg/dL
  RALB: 3.5 g/dL
  TBIL: 0.1 mg/dL
  TC: 66.4 mg/dL
  TG: 155 mg/dL
  TP: 6.1 g/dL
  gamma-GTP: 1 IU/L
[5]
  TERMINAL_BW: 226.4 g
  APTT: 18.3 s
  Bas: 0%
  Eos: 1%
  Fbg: 221.6 mg/dL
  Ht: 38.6%
  Lym: 78%
  MCH: 21.7 pg
  MCHC: 34.2%
  MCV: 63.3 fL
  Mono: 3.4%
  Neu: 17%
  Plat: 137.5 x10_4/uL
  RBC: 609.4 x10_4/ul
  Ret: 7.3%
  WBC: 105.8 x10_2/uL
  ALP: 892.6 IU/L
  ALT: 36 IU/L
  AST: 69 IU/L
  BUN: 15.4 mg/dL
  CRE: 0.4 mg/dL
  DBIL: 0.076 mg/dL
  GLC: 210.4 mg/dL
  IP: 8.7 mg/dL
  K: 4 meq/L
  LDH: 217.4 IU/L
  Na: 140.8 meq/L
  PL: 160.4 mg/dL
  RALB: 3.4 g/dL
  TBIL: 0.1 mg/dL
  TC: 78.4 mg/dL
  TG: 84.2 mg/dL
  TP: 5.5 g/dL
  gamma-GTP: 1.4 IU/L
[6]
  TERMINAL_BW: 255.3 g
  APTT: 19 s
  Bas: 0%
  Eos: 1%
  Fbg: 211.6 mg/dL
  Ht: 40.1%
  Lym: 82.6%
  MCH: 21.3 pg
  MCHC: 34.4%
  MCV: 62 fL
  Mono: 3%
  Neu: 12.8%
  Plat: 133.3 x10_4/uL
  RBC: 647.4 x10_4/ul
  Ret: 5.7%
  WBC: 143.8 x10_2/uL
  ALP: 833.2 IU/L
  ALT: 35.2 IU/L
  AST: 65.6 IU/L
  BUN: 16.2 mg/dL
  CRE: 0.4 mg/dL
  DBIL: 0.084 mg/dL
  GLC: 219.6 mg/dL
  IP: 8.2 mg/dL
  K: 3.7 meq/L
  LDH: 193.8 IU/L
  Na: 140.2 meq/L
  PL: 143.4 mg/dL
  RALB: 3.4 g/dL
  TBIL: 0.1 mg/dL
  TC: 73.2 mg/dL
  TG: 86.4 mg/dL
  TP: 5.6 g/dL
  gamma-GTP: 1.6 IU/L
[7]
  TERMINAL_BW: 314.8 g
  APTT: 18.3 s
  Bas: 0%
  Eos: 1%
  Fbg: 229.2 mg/dL
  Ht: 41.1%
  Lym: 83.8%
  MCH: 20.7 pg
  MCHC: 35%
  MCV: 59.1 fL
  Mono: 2.6%
  Neu: 12.2%
  Plat: 130 x10_4/uL
  RBC: 695.4 x10_4/ul
  Ret: 4.7%
  WBC: 113.4 x10_2/uL
  ALP: 914.4 IU/L
  ALT: 34.8 IU/L
  AST: 65.8 IU/L
  BUN: 17.2 mg/dL
  CRE: 0.4 mg/dL
  DBIL: 0.086 mg/dL
  GLC: 234 mg/dL
  IP: 7.5 mg/dL
  K: 4 meq/L
  LDH: 192 IU/L
  Na: 141.2 meq/L
  PL: 151.2 mg/dL
  RALB: 3.3 g/dL
  TBIL: 0.1 mg/dL
  TC: 74.4 mg/dL
  TG: 106 mg/dL
  TP: 5.8 g/dL
  gamma-GTP: 0.8 IU/L
[8]
  TERMINAL_BW: 407 g
  APTT: 19.9 s
  Bas: 0%
  Eos: 1.4%
  Fbg: 214.2 mg/dL
  Ht: 42.1%
  Lym: 82.8%
  MCH: 19.6 pg
  MCHC: 35.1%
  MCV: 55.8 fL
  Mono: 2%
  Neu: 13.2%
  Plat: 112.1 x10_4/uL
  RBC: 755.6 x10_4/ul
  Ret: 2.7%
  WBC: 101.3 x10_2/uL
  ALP: 660.2 IU/L
  ALT: 37.4 IU/L
  AST: 65 IU/L
  BUN: 19 mg/dL
  CRE: 0.4 mg/dL
  DBIL: 0.1 mg/dL
  GLC: 200 mg/dL
  IP: 6.8 mg/dL
  K: 3.8 meq/L
  LDH: 168.2 IU/L
  Na: 141.4 meq/L
  PL: 147.2 mg/dL
  RALB: 3.4 g/dL
  TBIL: 0.2 mg/dL
  TC: 63.8 mg/dL
  TG: 158.4 mg/dL
